From PubChem BioAssay (NCI) come the findings set out here.

Values joined by “and” are separate entries in the source; they are usually repeats but may differ in a detail not shown here. Identical values can stand only once.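 Method: 48-hour compound exposure of cells in 96-well plates, five concentrations, linear interpolation of endpoints. GI50 marks 50% less growth. TGI: concentration producing complete growth inhibition.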

Some test systems named below: RXF 393 renal; SNB-19 CNS; SK-MEL-28 melanoma; SNB-75 CNS; UACC-257 melanoma; HT29 colon; UO-31 renal; TK-10 renal; UACC-62 melanoma; M14 melanoma.
What all share (assay): NCI tumour cell line growth inhibition, 48 h

Regarding `Nc1nc(Nc2cccc(F)c2)nc2ccccc12`, the GI50 with RXF 393 renal was 16.9 µM; in the assay with SNB-19 CNS it was 35.3 µM; with SK-MEL-28 melanoma, 15 µM; in the assay with SNB-75 CNS, 15.8 µM; with UACC-257 melanoma, 17.4 µM; with HT29 colon, 21.4 µM. Moreover, the figures for the GI50 in the assay on UO-31 renal, with TK-10 renal and with UACC-62 melanoma were 19 µM, 39.3 µM and 17.8 µM, respectively. Also, the TGI in the assay on RXF 393 renal is 45.3 µM; in the assay on SNB-19 CNS it was above 100 µM; with SK-MEL-28 melanoma it was 29 µM; in the assay on SNB-75 CNS it was 50.4 µM; in the assay on UACC-257 melanoma it was 34.1 µM; in the assay on HT29 colon, 39.3 µM. The TGI worked out at 61.2 µM with UO-31 renal, 90.3 µM in the assay with TK-10 renal and 38.3 µM in the assay on UACC-62 melanoma.
On to `CCc1c2c(nc3cccc(N)c13)-c1cc3c(c(=O)n1C2)COC(=O)[C@]3(O)CC`, for which the GI50 in the assay with RXF 393 renal was 0.0636 µM; in the assay with SNB-19 CNS, 0.00176 µM; in the assay with SK-MEL-28 melanoma, 0.113 µM and 0.034 µM; with SNB-75 CNS it was 0.0158 µM; with M14 melanoma, 0.00202 µM; in the assay with UO-31 renal, 0.0516 µM. Further, in the assay with UACC-62 melanoma, the GI50 was below 0.001 µM. In addition, the TGI is 0.0512 µM in the assay on SNB-19 CNS; above 100 µM in the assay on SK-MEL-28 melanoma; 16.9 µM in the assay on SNB-75 CNS; 2.97 µM with M14 melanoma; 0.655 µM in the assay on HT29 colon; 0.397 µM in the assay with UO-31 renal. This compound gave a TGI in the assay with TK-10 renal of 0.748 µM.
As to `S=c1ssc(Sc2ccccn2)c1Cl`, the GI50 in the assay on RXF 393 renal was 16.9 µM; with SNB-19 CNS, 17 µM; in the assay with SNB-75 CNS, 23.3 µM; with UACC-257 melanoma it was 22.2 µM; in the assay with M14 melanoma, 14 µM; with HT29 colon, 3.43 µM. Moreover, the GI50 with UO-31 renal is 6.51 µM; in the assay on TK-10 renal, 2.11 µM; with UACC-62 melanoma, 15.3 µM. The TGI in the assay with RXF 393 renal is 32.6 µM; with SNB-19 CNS, 41 µM; in the assay with SNB-75 CNS, 56.8 µM; in the assay with UACC-257 melanoma it was 57.9 µM; in the assay with M14 melanoma, 27 µM; with HT29 colon, above 100 µM. For the same compound, the TGI is above 100 µM with UO-31 renal, 8.57 µM in the assay with TK-10 renal and 28.6 µM in the assay on UACC-62 melanoma.
`CCC1CN2CCc3cc(OC)c(OC)cc3C2CC1CC1c2cc(OC)c(OC)cc2CCN1C(=O)CNC(=O)OC(C)(C)C` (centres undefined): the TGI in the assay with RXF 393 renal is 51.2 µM; with SNB-19 CNS, 53.5 µM; with SK-MEL-28 melanoma, 61 µM; in the assay with SNB-75 CNS it was 73.1 µM; in the assay with UACC-257 melanoma, 60 µM; in the assay on HT29 colon, above 100 µM. Moreover, the values for the TGI with UO-31 renal, in the assay with TK-10 renal and in the assay with UACC-62 melanoma were 68.3 µM, 85.5 µM and 56.4 µM, respectively.
On to `CN(C)c1ccc(C(N)=O)cn1`, for which the TGI in the assay with RXF 393 renal, in the assay with SNB-19 CNS, in the assay on SK-MEL-28 melanoma, with SNB-75 CNS, with UACC-257 melanoma and in the assay with HT29 colon was above 100 µM each time. Also, the TGI in the assay on UO-31 renal, in the assay with TK-10 renal and in the assay with UACC-62 melanoma was above 100 µM each time.
Regarding `O=C(Nc1ccc2c(c1)oc(=O)c1ccccc12)C(Cl)Cl`, the TGI with RXF 393 renal, in the assay on SNB-19 CNS, in the assay with SK-MEL-28 melanoma, with SNB-75 CNS, with UACC-257 melanoma and in the assay on M14 melanoma was above 100 µM in each case. Also, the TGI with HT29 colon is 97.8 µM; in the assay with UO-31 renal, above 100 µM; in the assay with UACC-62 melanoma, above 100 µM.
On to `COc1ccc2c(c1)nc(N)c1c3cccnc3cn21`, for which the GI50 was 0.0224 µM in the assay with RXF 393 renal; 0.212 µM with SNB-19 CNS; 0.06 µM in the assay with SNB-75 CNS; 0.064 µM in the assay with UACC-257 melanoma; 0.039 µM in the assay with M14 melanoma; 0.0351 µM in the assay with HT29 colon. The GI50 in the assay with UO-31 renal is 0.0776 µM; in the assay on TK-10 renal it was 0.252 µM; in the assay on UACC-62 melanoma it was 0.0541 µM. The TGI was 0.0777 µM in the assay on RXF 393 renal; above 100 µM in the assay on SNB-19 CNS; above 100 µM in the assay on SNB-75 CNS; 26.7 µM in the assay with UACC-257 melanoma; 27.9 µM in the assay on M14 melanoma; 1.88 µM with HT29 colon. Further, the results for the TGI with UO-31 renal, in the assay on TK-10 renal and in the assay with UACC-62 melanoma were 17.9 µM, 19.9 µM and 22.1 µM, respectively.
Regarding `CC(C)[C@@H](COC(C)(C)C)N=CN1CCc2c([nH]c3ccccc23)C1`, the TGI in the assay with RXF 393 renal, in the assay with SNB-19 CNS, in the assay on SK-MEL-28 melanoma, in the assay with SNB-75 CNS, in the assay with M14 melanoma and with HT29 colon was above 100 µM in each case. In addition, the TGI in the assay with UO-31 renal, in the assay with TK-10 renal and in the assay on UACC-62 melanoma was above 100 µM throughout.
Consider `O=C(Cc1ccccc1)N/N=C(\C1=Nc2ccc([N+](=O)[O-])cc2NC1O)C(O)c1ccc([N+](=O)[O-])cc1` (centres undefined), for which the TGI in the assay on RXF 393 renal, in the assay with SNB-19 CNS, with SNB-75 CNS, with UACC-257 melanoma, in the assay with M14 melanoma and in the assay on HT29 colon was above 100 µM throughout. Besides, the TGI in the assay with UO-31 renal, with TK-10 renal and with UACC-62 melanoma was above 100 µM in each case.
As for `CS(=O)(=O)Nc1cc(-c2ccc3ncnc(Nc4ccc5c(cnn5Cc5ccc(F)cc5)c4)c3c2)cnc1Cl`, the GI50 is 0.38 µM with RXF 393 renal; 1.81 µM in the assay on SNB-19 CNS; 0.803 µM in the assay on SK-MEL-28 melanoma; 0.211 µM in the assay on SNB-75 CNS; 2.17 µM in the assay with UACC-257 melanoma; 2.33 µM with M14 melanoma. Also, the GI50 in the assay with HT29 colon is 1.92 µM; in the assay on UACC-62 melanoma it was 0.607 µM. Also, the TGI worked out at 2.26 µM in the assay with RXF 393 renal; 12.2 µM in the assay on SNB-19 CNS; 7.17 µM in the assay with SK-MEL-28 melanoma; 2.97 µM in the assay with SNB-75 CNS; 17.9 µM with UACC-257 melanoma; 17 µM in the assay with M14 melanoma. Besides, the figures for the TGI with HT29 colon and with UACC-62 melanoma were 12.9 µM and 2.98 µM, respectively.
